Data: patent US20240226106A1, “INHIBITORS OF PLASMA KALLIKREIN” (SHIRE HUMAN GENETIC THERAPIES, INC., priority 2021, published 2024)
Like-named read-outs stand apart in the source and are kept apart here.

Assays:
plasma kallikrein = molecular target: T1, plasma kallikrein (Homo sapiens, UniProt P03952); experiment: Neat human plasma assay (fluorogenic peptide), contact pathway-activated plasma; format: biochemical; conditions: read-out: Human Plasma Assay: IC90
T1 construct: from tissue; host or cells: sodium citrate collected human plasma
T1 sequence (P03952 391-638 limits assumed): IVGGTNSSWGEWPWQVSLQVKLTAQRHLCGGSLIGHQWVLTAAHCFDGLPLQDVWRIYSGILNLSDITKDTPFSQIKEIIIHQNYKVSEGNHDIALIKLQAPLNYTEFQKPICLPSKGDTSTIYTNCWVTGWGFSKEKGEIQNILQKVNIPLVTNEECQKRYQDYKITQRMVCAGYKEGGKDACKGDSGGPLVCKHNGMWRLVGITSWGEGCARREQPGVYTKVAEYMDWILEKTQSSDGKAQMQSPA
T1 sequence (P03952 20-390 partner limits assumed): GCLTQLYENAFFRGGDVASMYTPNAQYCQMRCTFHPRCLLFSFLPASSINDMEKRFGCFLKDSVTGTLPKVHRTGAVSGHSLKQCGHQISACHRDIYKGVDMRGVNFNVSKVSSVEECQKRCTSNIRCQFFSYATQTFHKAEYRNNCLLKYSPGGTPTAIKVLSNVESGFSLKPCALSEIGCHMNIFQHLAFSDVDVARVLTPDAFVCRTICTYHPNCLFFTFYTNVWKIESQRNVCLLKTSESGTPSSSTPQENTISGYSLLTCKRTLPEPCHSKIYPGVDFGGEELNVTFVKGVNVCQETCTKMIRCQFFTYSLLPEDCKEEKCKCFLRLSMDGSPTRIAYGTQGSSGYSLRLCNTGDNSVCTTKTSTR
Method: To analyze inhibition of plasma kallikrein in an ex vivo setting, the potency of compounds was measure in contact pathway-activated plasma assays. In a fluorogenic peptide substrate assay, test compounds dissolved in DMSO were added to sodium citrate collected human or rat plasma in a 96-well microplate. Alternatively, citrated plasma was collected from rats administered the compounds orally or by IV. 10 nM of human FXIIa (Enzyme Research Laboratories) diluted in PKa buffer (20 mM Tris-HCl, pH 7.5, 150 mM NaCl, 1 mM EDTA, 0.100 PEG-8000, and 0.1% Triton X-100) was added to the plasma, followed by the 100 μM of the profluorescent, synthetic plasma kallikrein substrate PFR-AMC (also diluted in PKa buffer). Final plasma concentration in the reaction was […]. Fluorescence was immediately monitored by excitation/emission wavelengths of 360 nm/480 nm respectively over a period of 5 minutes in a microplate reader. The resulting linear increase in fluorescence emission (reflecting PKa proteolysis of PFR-AMC substrate) was fit to extract a proteolytic rate (fluorescent units over time), and this rate was subsequently plotted against compound inhibitor concentration. Resulting plots were fit to a standard 4-parameter IC50/C90 equation to determine min/max values, IC50/90, and slope. All experimental steps were performed at room temperature.

[1] = molecular target: human activated kallikrein enzyme (Homo sapiens, UniProt P03952); experiment: Inhibition of human activated plasma kallikrein, fluorogenic peptide substrate (PFR-AMC), 500 pM enzyme format; format: biochemical; conditions: 500 pM activated kallikrein, 30 min preincubation, 10 min reaction, room temperature, read-out: Primary Dose Response Assay: Average EC50
human activated kallikrein enzyme, sequence (P03952 391-638 limits assumed): as the sequence (P03952 391-638 limits assumed) above
human activated kallikrein enzyme, sequence (P03952 20-390 partner limits assumed): as the sequence (P03952 20-390 partner limits assumed) above
Outline: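 Enzyme at 500 pM with […] PFR-AMC in 20 mM Tris pH 7.5, 1 mM EDTA, 150 mM NaCl, 0.1% PEG-400, 0.1% Triton X-100. Inhibitor preincubated 30 min, then 10 min reaction at room temperature; AMC fluorescence read at 380 nm excitation/460 nm emission.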

[2] = citrated human plasma, 10 nM human FXIIa activation, 100 μM PFR-AMC, room temperature

| Compound | IC90 (plasma kallikrein; [2]) [nM] | EC50 [1] [nM] | IC90 (plasma kallikrein) [nM] |
| --- | --- | --- | --- |
| Cc1ccnc([C@H]2C[C@@H]2C(=O)Nc2cc(OCc3cn4nc(C5CC5)cc(N5CC(=O)N(C)C5=O)c4n3)cnn2)n1 [Example 97, (1S,2S)—N-(5-((6-cyclopropyl-8-(3-methyl-2,4-dioxoimidazolidin-1-yl)imidazo[1,2-b]pyridazin-2-yl)methoxy)pyridazin-3-yl)-2-(4-methylpyrimidin-2-yl)cyclopropane-1-carboxamide] | < 500 | < 2.5 |  |
| Cc1ccnc([C@H]2C[C@@H]2C(=O)Nc2cc(NCc3cc(N4CC(=O)N(C)C4=O)c4ncc(C5CC5)cc4c3)ncn2)n1 [Example 98, (1S,2S)—N-(6-(((3-cyclopropyl-8-(3-methyl-2,4-dioxoimidazolidin-1-yl)quinolin-6-yl)methyl)amino)pyrimidin-4-yl)-2-(4-methylpyrimidin-2-yl)cyclopropane-1-carboxamide] | < 500 | < 2.5 |  |
| Cc1ccnc([C@H]2C[C@@H]2C(=O)Nc2cc(NCc3cc4cc(C5CC5)cc(N5CC(=O)N(C)C5=O)n4n3)nc(C)n2)n1 [Example 99, (1S,2S)—N-(6-(((5-cyclopropyl-7-(3-methyl-2,4-dioxoimidazolidin-1-yl)pyrazolo[1,5-a]pyridin-2-yl)methyl)amino)-2-methylpyrimidin-4-yl)-2-(4-methylpyrimidin-2-yl)cyclopropane-1-carboxamide] |  | < 2.5 | < 500 |
| Cc1ccnc([C@H]2C[C@@H]2C(=O)Nc2cc(OCc3cc4cc(C5CC5)cc(N5CC(=O)N(C)C5=O)n4n3)cnn2)n1 [Example 100, (1S,2S)—N-(5-((5-cyclopropyl-7-(3-methyl-2,4-dioxoimidazolidin-1-yl)pyrazolo[1,5-a]pyridin-2-yl)methoxy)pyridazin-3-yl)-2-(4-methylpyrimidin-2-yl)cyclopropane-1-carboxamide] |  | < 2.5 | < 500 |
| Cc1ccnc([C@H]2C[C@@H]2C(=O)Nc2cc(NCc3cc4cc(C5CC5)cc(N5CC(=O)N(C)C5=O)n4n3)ncn2)n1 [Example 101, (1S,2S)—N-(6-(((5-cyclopropyl-7-(3-methyl-2,4-dioxoimidazolidin-1-yl)pyrazolo[1,5-a]pyridin-2-yl)methyl)amino)pyrimidin-4-yl)-2-(4-methylpyrimidin-2-yl)cyclopropane-1-carboxamide] | < 500 | < 2.5 |  |
| Cc1ccnc([C@H]2C[C@@H]2C(=O)Nc2nncc(N[C@H](C)c3cc4cc(C5CC5)cc(N5CC6CC6C5=O)n4n3)n2)n1 (stereo partly drawn) [Example 105, (1S,2S)—N-(5-(((1R^•)-1-(5-cyclopropyl-7-(2-oxo-3-azabicyclo[3.1.0]hexan-3-yl)pyrazolo[1,5-a]pyridin-2-yl)ethyl)amino)-1,2,4-triazin-3-yl)-2-(4-methylpyrimidin-2-yl)cyclopropane-1-carboxamide] | < 500 | < 2.5 |  |
